Reference: doi:10.64898/2025.12.09.693172, “Agonism of mosquito and human transient receptor potential ankyrin 1 (TRPA1) channels by the natural drimane sesquiterpene cinnamodial” (bioRxiv, 2025)

Columns and labels:
[1] = molecular target: T1, HsTRPA1 (Homo sapiens, UniProt O75762); experiment: two-electrode voltage clamp, Xenopus oocytes; assay type: cell-based
T1 construct: gene TRPA1; cDNA construct from Saito and Tominaga, cRNA injected into Xenopus laevis oocytes; UniProt id printed for the modelled HsTRPA1 (residues 401-1119)
T1 sequence (O75762 whole entry, the tested form may be a part): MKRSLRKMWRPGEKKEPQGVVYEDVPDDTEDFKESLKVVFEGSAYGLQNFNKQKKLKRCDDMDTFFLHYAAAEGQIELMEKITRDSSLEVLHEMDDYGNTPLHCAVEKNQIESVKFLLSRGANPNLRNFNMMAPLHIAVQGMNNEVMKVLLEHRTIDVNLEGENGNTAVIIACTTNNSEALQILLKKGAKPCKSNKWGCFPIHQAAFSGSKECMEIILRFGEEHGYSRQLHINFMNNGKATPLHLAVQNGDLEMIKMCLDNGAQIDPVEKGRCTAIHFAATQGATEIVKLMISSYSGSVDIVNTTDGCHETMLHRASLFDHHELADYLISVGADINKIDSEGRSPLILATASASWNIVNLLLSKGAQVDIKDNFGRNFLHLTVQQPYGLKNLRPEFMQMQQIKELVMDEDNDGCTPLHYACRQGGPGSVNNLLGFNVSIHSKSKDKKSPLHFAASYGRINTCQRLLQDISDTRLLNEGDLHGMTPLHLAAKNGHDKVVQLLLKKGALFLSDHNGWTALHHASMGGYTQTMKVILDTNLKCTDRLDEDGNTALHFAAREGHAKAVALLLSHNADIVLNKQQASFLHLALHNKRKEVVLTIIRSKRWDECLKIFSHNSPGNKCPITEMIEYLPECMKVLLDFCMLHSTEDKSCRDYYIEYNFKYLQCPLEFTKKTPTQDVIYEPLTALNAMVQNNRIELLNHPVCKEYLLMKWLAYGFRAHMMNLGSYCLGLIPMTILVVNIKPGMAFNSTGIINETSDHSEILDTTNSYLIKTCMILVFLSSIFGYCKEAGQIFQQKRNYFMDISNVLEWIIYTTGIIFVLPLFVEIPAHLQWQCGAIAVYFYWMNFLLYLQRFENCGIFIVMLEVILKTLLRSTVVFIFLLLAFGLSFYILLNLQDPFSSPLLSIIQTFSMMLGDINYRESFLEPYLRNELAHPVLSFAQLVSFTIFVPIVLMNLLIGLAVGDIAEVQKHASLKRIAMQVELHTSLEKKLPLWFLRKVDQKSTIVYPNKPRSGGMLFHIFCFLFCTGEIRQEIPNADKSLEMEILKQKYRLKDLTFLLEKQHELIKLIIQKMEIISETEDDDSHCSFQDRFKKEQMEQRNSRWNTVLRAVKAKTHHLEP

[2] = molecular target: T1, HsTRPA1; experiment: two-electrode voltage clamp, Xenopus oocytes; assay type: cell-based; conditions: agonist, ND96 pH 7.5

| EC50 [1] [nM] | Structure (SMILES) | % by which ΔIm at 1000 μM is lower than that of 10 μM CDIAL [2] [%] |
| --- | --- | --- |
| 2250 | CC(=O)O[C@@H]1C=C(C=O)[C@](O)(C=O)[C@@]2(C)CCCC(C)(C)[C@H]12 [CDIAL] |  |
| 800 | COCCCN(C(=O)CCl)c1nc(-c2ccc(OC)cc2)cs1 [JT010] |  |
|  | CC1=COC(=O)C2C(C)CCC12 (stereo not drawn) [nepetalactone] | 98.8 ± 0.46 |
